Test [1] can be described thus: luciferase reporter signal suppression in cells – H4 neuroglioma cells, luminescence, dose response (AID 1990). In kind it is functional, cell-based. On the technique in general: A reporter such as luciferase makes a cellular process visible.
Test [2] is described as follows: loss of viability in embryonic kidney cells – cell-based, HEK293T, ATP luminescence, dry powder, cytotoxicity control, dose response (AID 652119). In kind it is functional. The settings on record: HEK293.
Test [3] deals with T1, Protein disulfide-isomerase (Homo sapiens, UniProt P07237). Kind of test: inhibition of PDI-driven insulin aggregation – biochemical, turbidity, absorbance, cherry-picked samples, dose response (AID 602350). In kind it is functional.
T1 sequence (P07237 whole entry): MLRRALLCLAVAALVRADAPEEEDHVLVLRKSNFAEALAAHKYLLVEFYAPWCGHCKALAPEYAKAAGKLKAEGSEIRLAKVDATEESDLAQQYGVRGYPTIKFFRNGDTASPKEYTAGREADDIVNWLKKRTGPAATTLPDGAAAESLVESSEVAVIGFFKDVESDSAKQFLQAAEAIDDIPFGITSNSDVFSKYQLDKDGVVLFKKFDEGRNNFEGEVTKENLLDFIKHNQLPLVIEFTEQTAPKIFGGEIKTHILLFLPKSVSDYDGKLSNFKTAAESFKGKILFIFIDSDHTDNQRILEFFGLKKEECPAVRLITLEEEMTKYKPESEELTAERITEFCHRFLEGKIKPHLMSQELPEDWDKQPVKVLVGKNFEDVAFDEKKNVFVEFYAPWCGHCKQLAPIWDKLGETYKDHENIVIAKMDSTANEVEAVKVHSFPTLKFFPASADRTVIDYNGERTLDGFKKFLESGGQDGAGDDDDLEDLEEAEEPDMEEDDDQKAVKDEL
A short description of test [4]: Luminescence Cell-Based Dose Response HTS to Identify Inhibitors of 5'UTR Stem-Loop Driven Prion Protein mRNA Translation in H4 Neuroglioblastoma Cells. [Related pubchem assays: 1827 (Project Summary), 1813 (Primary HTS)]. In kind it is functional.
Test [5] concerns the target Protein disulfide-isomerase A6 (Homo sapiens, UniProt Q15084). Kind of test: Secondary Assay for Selectivity of PDI Inhibitors (against ERp5) Measured in Biochemical System Using Plate Reader - 2137-04_Inhibitor_Dose_DryPowder_Activity_Set3.
In test [6] the target is T2, Protein RecA (Mycobacterium tuberculosis, UniProt P9WHJ3).
T2 sequence (P9WHJ3 whole entry): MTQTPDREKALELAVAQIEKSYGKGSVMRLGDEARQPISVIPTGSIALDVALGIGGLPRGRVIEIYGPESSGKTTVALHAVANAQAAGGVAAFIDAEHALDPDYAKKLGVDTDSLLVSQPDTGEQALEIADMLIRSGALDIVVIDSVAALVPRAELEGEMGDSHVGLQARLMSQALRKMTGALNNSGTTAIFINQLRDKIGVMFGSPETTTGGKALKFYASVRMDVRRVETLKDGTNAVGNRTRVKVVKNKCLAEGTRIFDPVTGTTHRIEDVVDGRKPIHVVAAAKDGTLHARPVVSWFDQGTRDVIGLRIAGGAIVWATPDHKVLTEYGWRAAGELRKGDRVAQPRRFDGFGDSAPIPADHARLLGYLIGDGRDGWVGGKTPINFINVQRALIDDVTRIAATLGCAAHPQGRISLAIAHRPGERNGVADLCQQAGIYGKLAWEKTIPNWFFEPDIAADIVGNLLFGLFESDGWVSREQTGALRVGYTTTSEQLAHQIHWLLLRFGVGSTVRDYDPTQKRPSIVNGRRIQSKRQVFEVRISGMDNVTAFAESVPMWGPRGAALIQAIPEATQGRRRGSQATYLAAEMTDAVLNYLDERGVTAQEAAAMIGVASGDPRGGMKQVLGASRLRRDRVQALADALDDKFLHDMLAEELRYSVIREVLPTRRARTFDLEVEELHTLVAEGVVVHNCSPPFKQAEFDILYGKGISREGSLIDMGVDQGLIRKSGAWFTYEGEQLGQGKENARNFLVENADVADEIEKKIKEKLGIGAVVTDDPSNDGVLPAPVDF
Kind of test: Fluorescence Cell-Free Homogeneous Dose Retest to Identify Inhibitors of RecA-Intein Splicing Activity. [Related pubchem assays (depositor defined):AID2097, AID2223, AID489010, AID492950]. In kind it is functional.

For test [7], the target named is T1, Protein disulfide-isomerase. Kind of test: inhibition of PDI-mediated insulin reduction – biochemical, turbidity, dry powder samples, set 2, confirmation (AID 652146).
Test [8] can be described thus: alpha-synuclein stem-loop luciferase translation blockers – H4 neuroglioma cells, luminescence, confirmation (AID 1988). In kind it is functional, cell-based.
For test [9], the target named is T3, Replicative DNA helicase DnaB (Mycobacterium tuberculosis, UniProt P9WMR3).
T3 sequence (P9WMR3 whole entry): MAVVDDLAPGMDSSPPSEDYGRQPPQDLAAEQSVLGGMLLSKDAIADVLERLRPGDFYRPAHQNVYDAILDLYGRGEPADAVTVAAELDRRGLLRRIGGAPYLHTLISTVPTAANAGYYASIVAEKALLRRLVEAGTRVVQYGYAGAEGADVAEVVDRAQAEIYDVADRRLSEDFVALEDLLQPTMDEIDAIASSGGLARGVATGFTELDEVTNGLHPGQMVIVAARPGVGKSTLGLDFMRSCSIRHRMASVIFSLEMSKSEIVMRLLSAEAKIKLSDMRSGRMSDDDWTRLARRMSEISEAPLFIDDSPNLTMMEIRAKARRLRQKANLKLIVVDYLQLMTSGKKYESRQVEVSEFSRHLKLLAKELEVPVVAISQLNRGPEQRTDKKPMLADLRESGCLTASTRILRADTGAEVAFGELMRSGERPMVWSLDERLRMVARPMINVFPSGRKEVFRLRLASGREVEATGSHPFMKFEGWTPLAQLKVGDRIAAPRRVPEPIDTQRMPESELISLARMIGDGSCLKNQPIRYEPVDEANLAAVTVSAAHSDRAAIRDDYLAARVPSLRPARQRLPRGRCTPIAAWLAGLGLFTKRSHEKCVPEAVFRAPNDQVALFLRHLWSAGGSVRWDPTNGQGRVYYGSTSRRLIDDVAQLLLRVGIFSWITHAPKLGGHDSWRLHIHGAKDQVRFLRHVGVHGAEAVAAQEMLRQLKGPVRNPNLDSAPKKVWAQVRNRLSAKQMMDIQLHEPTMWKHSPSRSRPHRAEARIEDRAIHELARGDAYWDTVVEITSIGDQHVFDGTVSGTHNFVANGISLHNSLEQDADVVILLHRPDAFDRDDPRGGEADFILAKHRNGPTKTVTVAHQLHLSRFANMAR
Kind of test: DnaB intein splicing inhibitors, dose response, biochemical, cell-free fluorescence (AID 449749). In kind it is functional.

For test [10], the target named is Aurora kinase A (Homo sapiens, UniProt O14965). In kind it is functional.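 Also: value from the Navigating the Kinome kinase panel profiling, panel entry STK6.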
Chain of Aurora kinase A (O14965 whole entry): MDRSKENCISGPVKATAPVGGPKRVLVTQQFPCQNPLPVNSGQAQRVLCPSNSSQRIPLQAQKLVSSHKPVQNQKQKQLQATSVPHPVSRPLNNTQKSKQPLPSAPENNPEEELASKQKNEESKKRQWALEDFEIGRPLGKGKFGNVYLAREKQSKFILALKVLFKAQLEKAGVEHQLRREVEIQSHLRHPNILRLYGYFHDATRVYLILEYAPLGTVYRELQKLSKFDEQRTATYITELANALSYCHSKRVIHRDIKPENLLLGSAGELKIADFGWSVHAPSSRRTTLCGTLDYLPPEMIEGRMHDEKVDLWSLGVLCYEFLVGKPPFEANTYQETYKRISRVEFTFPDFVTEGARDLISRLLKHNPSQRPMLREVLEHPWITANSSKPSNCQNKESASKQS
For test [11], the target named is Aurora kinase B (Homo sapiens, UniProt Q96GD4). In kind it is functional.
Chain of Aurora kinase B (Q96GD4 whole entry): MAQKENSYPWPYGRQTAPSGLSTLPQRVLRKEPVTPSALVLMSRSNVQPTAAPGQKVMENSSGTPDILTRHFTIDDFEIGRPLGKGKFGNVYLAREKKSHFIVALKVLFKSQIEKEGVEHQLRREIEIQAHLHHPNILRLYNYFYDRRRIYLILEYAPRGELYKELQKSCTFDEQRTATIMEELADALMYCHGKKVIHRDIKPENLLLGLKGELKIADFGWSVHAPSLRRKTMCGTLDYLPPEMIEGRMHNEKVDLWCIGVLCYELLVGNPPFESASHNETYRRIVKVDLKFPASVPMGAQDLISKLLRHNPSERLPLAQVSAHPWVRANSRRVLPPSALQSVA
Test [12] deals with Focal adhesion kinase 1 (Homo sapiens, UniProt Q05397). In kind it is functional.
Chain of Focal adhesion kinase 1 (Q05397 whole entry): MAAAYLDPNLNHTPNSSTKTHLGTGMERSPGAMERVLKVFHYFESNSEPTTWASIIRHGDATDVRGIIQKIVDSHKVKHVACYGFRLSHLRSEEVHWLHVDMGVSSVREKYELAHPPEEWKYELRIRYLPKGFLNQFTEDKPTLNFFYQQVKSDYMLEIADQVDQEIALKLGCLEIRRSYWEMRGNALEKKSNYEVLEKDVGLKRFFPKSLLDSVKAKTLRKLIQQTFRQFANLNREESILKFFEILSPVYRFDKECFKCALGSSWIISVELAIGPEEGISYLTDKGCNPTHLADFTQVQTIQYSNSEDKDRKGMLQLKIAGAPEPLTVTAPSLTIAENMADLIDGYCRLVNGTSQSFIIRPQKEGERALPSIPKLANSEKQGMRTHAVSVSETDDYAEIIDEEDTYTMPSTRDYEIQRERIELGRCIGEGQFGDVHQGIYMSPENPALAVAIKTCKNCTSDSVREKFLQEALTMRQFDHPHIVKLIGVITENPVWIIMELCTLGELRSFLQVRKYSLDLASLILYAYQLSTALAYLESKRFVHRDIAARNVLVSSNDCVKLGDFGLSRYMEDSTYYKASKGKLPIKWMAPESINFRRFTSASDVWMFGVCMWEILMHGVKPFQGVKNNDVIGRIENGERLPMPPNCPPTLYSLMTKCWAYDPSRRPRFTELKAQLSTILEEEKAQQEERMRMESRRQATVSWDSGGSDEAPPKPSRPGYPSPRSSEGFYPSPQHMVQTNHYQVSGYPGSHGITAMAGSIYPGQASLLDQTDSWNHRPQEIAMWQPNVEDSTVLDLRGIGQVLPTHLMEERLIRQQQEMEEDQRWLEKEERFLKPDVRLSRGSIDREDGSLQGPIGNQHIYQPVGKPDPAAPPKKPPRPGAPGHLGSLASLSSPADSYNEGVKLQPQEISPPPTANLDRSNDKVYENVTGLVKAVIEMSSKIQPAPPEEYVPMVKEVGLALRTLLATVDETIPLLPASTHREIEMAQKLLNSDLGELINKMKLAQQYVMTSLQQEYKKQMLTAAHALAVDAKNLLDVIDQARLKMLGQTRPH
In test [13] the target is ALK tyrosine kinase receptor (Homo sapiens, UniProt Q9UM73). In kind it is functional.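 Also: ALK tested as one member of a kinase panel screen.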
Chain of ALK tyrosine kinase receptor (Q9UM73 whole entry): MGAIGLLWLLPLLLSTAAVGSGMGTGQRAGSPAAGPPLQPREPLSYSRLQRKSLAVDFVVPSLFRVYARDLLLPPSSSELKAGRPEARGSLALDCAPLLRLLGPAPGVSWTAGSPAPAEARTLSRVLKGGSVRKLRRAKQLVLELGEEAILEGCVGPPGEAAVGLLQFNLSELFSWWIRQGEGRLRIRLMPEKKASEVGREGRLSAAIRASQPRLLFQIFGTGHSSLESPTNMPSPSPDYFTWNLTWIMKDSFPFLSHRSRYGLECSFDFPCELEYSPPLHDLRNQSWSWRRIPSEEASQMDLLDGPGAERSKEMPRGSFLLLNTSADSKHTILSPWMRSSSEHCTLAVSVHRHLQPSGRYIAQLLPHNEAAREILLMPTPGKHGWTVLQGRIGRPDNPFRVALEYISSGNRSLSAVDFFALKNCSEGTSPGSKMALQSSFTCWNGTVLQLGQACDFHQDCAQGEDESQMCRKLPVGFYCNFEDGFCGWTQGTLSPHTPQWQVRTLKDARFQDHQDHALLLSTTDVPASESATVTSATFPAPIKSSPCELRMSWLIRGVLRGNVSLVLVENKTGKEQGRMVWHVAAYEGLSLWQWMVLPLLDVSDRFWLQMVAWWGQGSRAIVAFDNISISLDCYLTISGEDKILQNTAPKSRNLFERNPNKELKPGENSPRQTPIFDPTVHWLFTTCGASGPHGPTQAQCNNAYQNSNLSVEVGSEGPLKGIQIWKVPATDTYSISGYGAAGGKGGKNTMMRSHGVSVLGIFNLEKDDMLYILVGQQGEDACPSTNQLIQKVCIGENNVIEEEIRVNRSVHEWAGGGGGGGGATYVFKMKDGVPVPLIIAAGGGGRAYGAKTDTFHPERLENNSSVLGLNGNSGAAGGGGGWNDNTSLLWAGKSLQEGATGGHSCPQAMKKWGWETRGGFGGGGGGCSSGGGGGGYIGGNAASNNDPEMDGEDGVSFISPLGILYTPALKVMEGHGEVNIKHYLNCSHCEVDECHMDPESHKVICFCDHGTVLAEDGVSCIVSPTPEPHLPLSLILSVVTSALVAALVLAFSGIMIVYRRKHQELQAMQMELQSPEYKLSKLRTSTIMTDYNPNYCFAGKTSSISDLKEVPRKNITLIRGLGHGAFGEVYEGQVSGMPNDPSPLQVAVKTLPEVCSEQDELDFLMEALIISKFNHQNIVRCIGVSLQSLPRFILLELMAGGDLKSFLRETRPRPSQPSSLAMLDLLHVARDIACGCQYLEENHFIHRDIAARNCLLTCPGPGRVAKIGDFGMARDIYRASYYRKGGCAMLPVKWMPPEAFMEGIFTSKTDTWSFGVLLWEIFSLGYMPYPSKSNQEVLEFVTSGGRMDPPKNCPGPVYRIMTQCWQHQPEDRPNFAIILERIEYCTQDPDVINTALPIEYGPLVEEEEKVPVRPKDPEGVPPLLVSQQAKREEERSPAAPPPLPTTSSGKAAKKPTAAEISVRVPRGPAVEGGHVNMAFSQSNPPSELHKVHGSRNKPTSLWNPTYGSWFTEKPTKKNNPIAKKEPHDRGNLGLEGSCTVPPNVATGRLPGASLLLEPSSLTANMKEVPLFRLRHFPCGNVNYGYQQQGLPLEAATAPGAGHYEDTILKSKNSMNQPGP

One may read the EC50 as the midpoint of the concentration-response curve. As usually defined, the AC50 is the midpoint of the concentration-response curve, whichever way the signal moves. Usually Ki stands for the dissociation constant of the complex between target and ligand, obtained from inhibition or displacement.

Each structure is given as a SMILES string. The source made the active and inactive calls. Bounds are passed on as bounds.

Chain of Protein disulfide-isomerase A6 (Q15084 whole entry): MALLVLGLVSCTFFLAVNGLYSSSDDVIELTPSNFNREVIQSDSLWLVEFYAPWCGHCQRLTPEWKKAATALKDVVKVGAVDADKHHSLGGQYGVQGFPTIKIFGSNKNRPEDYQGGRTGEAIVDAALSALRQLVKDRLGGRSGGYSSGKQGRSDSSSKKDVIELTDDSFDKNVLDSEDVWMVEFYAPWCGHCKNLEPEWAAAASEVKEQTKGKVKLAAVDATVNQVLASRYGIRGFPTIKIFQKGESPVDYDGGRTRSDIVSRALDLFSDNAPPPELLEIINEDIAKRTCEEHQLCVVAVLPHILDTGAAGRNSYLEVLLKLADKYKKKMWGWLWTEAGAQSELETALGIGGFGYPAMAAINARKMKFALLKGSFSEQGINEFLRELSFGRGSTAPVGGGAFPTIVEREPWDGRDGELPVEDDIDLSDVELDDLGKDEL

Take `CCOC(=O)C1(CCOc2ccccc2)CCN(Cc2ccc(O)c(Cl)c2)CC1`: the EC50 in [1] was > 120 µM (not active); in test [4], > 120 µM (not active); in test [6], > 380 µM (inactive); in test [8], > 120 µM (not active). Further, the AC50 is > 52 µM (inactive) in test [2]; 0.599 µM (active) in test [3]; 30 µM (inactive) in test [5]; 2 µM (active) in [7]; 99.6 µM (active) in test [9].

Regarding `Cc1cc(N2CCOCC2)cc2[nH]c(-c3c(NCCc4ccccc4)cc[nH]c3=O)nc12`, the Ki is 0.794 µM (active) in test [10], 0.1 µM (active) in [11], > 1.58 µM (inactive) in test [12] and 0.126 µM (active) in test [13].

These data come from ChEMBL document CHEMBL1201862, “PubChem BioAssay data set” (2004).
